As a reminder, the melting point is the temperature, or range, at which the solid turns liquid. With `COC(=O)c1nc(-c2cc(F)c(Br)cc2F)nc(N)c1OC` [Compound 2], the melting point was 186 to 187 °C.

As to `COc1c(N)nc(-c2cc(F)c(Br)cc2F)nc1C(=O)O` [Compound 11], the melting point was in the range of 132 to 133 °C. Turning to `C=Cc1c(C(=O)OC)nc(-c2ccc(C(F)(F)F)c(F)c2)c(F)c1N` [Compound 12], the melting point lay within 77 to 78 °C.

Molecule `COC(=O)c1nc(-c2ccc(OC(F)F)cc2)cc(N)c1Cl` [Compound 23] gave a melting point of 166.4 to 169 °C. The result for `C#Cc1ccc(-c2nc(C(=O)OC)c(Cl)c(N)c2Cl)cc1` [Compound 34] reads 164.2 to 166.8 °C; that for `C=Cc1c(C(=O)OC)nc(-c2ccc(C(F)(F)F)c(F)c2F)c(F)c1N` [Compound 53, methyl 4-amino-6-(2,3-difluoro-4-(trifluoromethyl)phenyl)-5-fluoro-3-vinylpicolinate], 118 to 120 °C; that for `COC(=O)c1nc(-c2cc(F)c(I)cc2F)cc(N)c1Cl` [Compound 56], 142 to 144 °C. The result for `C=Cc1c(C(=O)OC)nc(-c2ccc(Br)cc2)c(F)c1N` [Compound 57, methyl 4-amino-6-(4-bromophenyl)-5-fluoro-3-vinylpicolinate] reads 93 to 94 °C; that for `COC(=O)c1nc(-c2ccc(I)c(F)c2)cc(N)c1Cl` [Compound 66, methyl 4-amino-3-chloro-6-(3-fluoro-4-iodophenyl)picolinate], 141 to 143 °C; that for `Cc1c(-c2ccc(Br)cc2)nc(C(=O)O)c(Cl)c1N` [Compound 78, 4-Amino-6-(4-bromophenyl)-3-chloro-5-methylpicolinic acid], 185.5 to 187 °C. In turn, `COC(=O)c1nc(-c2ccc(C#N)cc2)c(C)c(N)c1Cl` [Compound 83, Methyl 4-amino-3-chloro-6-(4-cyanophenyl)-5-methylpicolinate] came in with a melting point of 145 to 148 °C.

In turn, `COC(=O)c1nc(-c2ccc(Br)cc2F)cc(N)c1Cl` [Compound 93] registered a melting point of 98.9 to 101.6 °C. With `Cc1c(-c2ccc(OC(F)F)cc2)nc(C(=O)O)c(Cl)c1N` [Compound 94, 4-Amino-3-chloro-6-(4-(difluoromethoxy)phenyl)-5-methylpicolinic acid], the melting point was 158.5 to 159.5 °C. `COC(=O)c1nc(-c2cc(F)c(I)cc2F)c(Br)c(N)c1Cl` [Compound 100] had a melting point of 145 to 147 °C. With `COC(=O)c1nc(-c2cc(F)c(I)cc2F)nc(N)c1OC` [Compound 101], the melting point is 193 to 194 °C. `COC(=O)c1nc(-c2ccc(Br)c(F)c2)c(C)c(N)c1Cl` [Compound 112, Methyl 4-amino-6-(4-bromo-3-fluorophenyl)-3-chloro-5-methylpicolinate] yielded a melting point of 134 to 137 °C.

Regarding `Cc1c(-c2ccc(I)cc2)nc(C(=O)O)c(Cl)c1N` [Compound 116, 4-Amino-3-chloro-6-(4-iodophenyl)-5-methylpicolinic acid], the melting point fell in the range of 179.5 to 181 °C. The result for `COc1c(N)nc(-c2cc(F)c(I)cc2F)nc1C(=O)O` [Compound 119] reads 131 to 132 °C. `C#Cc1ccc(-c2cc(N)c(Cl)c(C(=O)OC)n2)cc1` [Compound 126]: the melting point lay within 158.9 to 161.2 °C. The result for `COC(=O)c1nc(-c2cc(F)c(Br)cc2F)cc(N)c1Cl` [Compound 127, methyl 4-amino-6-(4-bromo-2,5-difluorophenyl)-3-chloropicolinate] reads 174 to 176 °C; that for `Nc1cc(-c2cc(F)c(I)cc2F)nc(C(=O)O)c1Cl` [Compound 131], 173 to 175 °C. The value for `COC(=O)c1nc(-c2ccc(I)cc2)c(C)c(N)c1Cl` [Compound 136, methyl 4-amino-3-chloro-6-(4-iodophenyl)-5-methylpicolinate] was 115 to 118 °C. In turn, `COC(=O)c1nc(-c2ccc(C#N)c(F)c2)c(C)c(N)c1Cl` [Compound 155, Methyl 4-amino-3-chloro-6-(4-cyano-3-fluorophenyl)-5-methylpicolinate] had a melting point of 177 to 180 °C.

In the case of `COC(=O)c1nc(-c2ccc(C(N)=O)cc2)c(F)c(N)c1Cl` [Compound 192], the melting point fell in the range of 192 to 195 °C. As for `COC(=O)c1nc(-c2cc(F)c(F)cc2F)c(F)c(N)c1Cl` [Compound 200, Methyl 4-amino-3-chloro-5-fluoro-6-(2,4,5-trifluorophenyl)picolinate], the melting point was 143.5 to 144.5 °C.

Source of the values: patent US9113629B2, “4-amino-6-(4-substituted-phenyl)-picolinates and 6-amino-2-(4-substituted-phenyl)-pyrimidine-4-carboxylates and their use as herbicides” (DOW AGROSCIENCES LLC, priority 2013, dated 2015).
